From patent US20230263803A1, “METHODS OF PREVENTING OR TREATING COVID-19 AND RELATED VIRAL DISEASES OR DISORDERS” (KINARUS AG, priority 2020, published 2023)

Experiments:
SARS-CoV-2PR1 = assay: microbe, parasite or virus in culture; format: cell-based; conditions: Vero B4 cells, 72 hrs, qRT-PCR
Vero B4 cells = conditions: 72 hrs

Structure (SMILES) | inhibition of viral shedding (SARS-CoV-2PR1; at the highest concentrations) [%] | cellular toxicity as determined by WST assay (Vero B4 cells) | inhibition at 0.1 µM (SARS-CoV-2PR1; Severe acute respiratory syndrome coronavirus 2, lowest concentration tested (100 nM), read-out: inhibition of shedding of new SARS-CoV-2 viruses into culture supernatants) [%]
CCc1ccc(CCOc2ccc(CC3SC(=O)NC3=O)cc2)nc1 (stereo not drawn) [Pioglitazone] | > 90 | – | –
Cn1c(=O)c(Oc2ccc(F)cc2F)cc2cnc(NC(CCO)CCO)nc21 [Pamapimod, 6-(2,4-Difluorophenoxy)-2-[3-hydroxy-1-(2-hydroxyethyl)-propylamino]-8-methyl-8H-pyrido[2,3-d]pyrimidin-7-one] | – | no cellular toxicity | 80
